Experimental data published in article PMC10354048 (Communications Chemistry, 2023).
Values after ≈ are worked out from the molar mass of the structure shown. Where no end group is shown, it is not given here. [ ]: non-standard residue; d: D form. Trp(1-Me) = Cn1cc(C[C@H](N)C(=O)O)c2ccccc21

Key:
Assay in all cases: microbe, parasite or virus in culture
[1] = system: E. faecalis CW133003; settings: broth microdilution per CSLI guidelines, Brain Heart Infusion broth, 5 × 10^5 CFU/mL, 37 °C, 20 h, range 64–0.125 µg/mL, average of three repeat assays
Protocol: (§1) Minimum inhibitory concentrations, determined by broth microdilution, are expressed as an average of three repeat assays. […] [a] MIC values expressed in μg/mL, [b] AC: American Type Culture Collection strain, [c] CW: CANWARD collection clinical isolate strain.33.
(§2) Minimum Inhibitory Concentrations (MIC) were determined for each of the bacteriocins and controls using a broth microdilution method, as per CSLI guidelines for microbial susceptibility testing. The peptides were dissolved in sterile deionized water to prepare the working stocks, with concentrations determined by UV absorbance at 280 nm[56]. Overnight cultures from the strains of interest were incubated with shaking overnight at 37 °C. Cation-adjusted Mueller Hinton Broth 2 (MHB 2) was used for the S. aureus, and S. epidermidis strains and Brain Heart Infusion (BHI) broth was utilized for the E. faecalis and E. faecium strains. The cultures were prepared and diluted to the turbidity of a 0.5 McFarland standard using MHB or BHI fresh media. Increasing concentrations of the leaderless bacteriocins were added to a 96-well polypropylene plate. The range tested for each bacteriocin was 64–0.125 µg/mL. The bacterial culture was further diluted and mixed in a 1:1 ratio with the bacteriocin solution to yield a final concentration in the wells of 5 × 10^5 CFU/mL. […] A 1:1000 dilution of the growth control was prepared in the respective media and plated onto agar (100 μL) to ensure the correct inoculum concentration (5 × 10^5 CFU/mL indicated by ≈ 50 bacterial colonies). The 96-well and agar plates were incubated at 37 °C, and growth was assessed by the formation of a pellet observable with the naked eye after 20 h. […] Each assay was performed in triplicate.
(§3) Materials and instruments […]
(§4) Minimum Inhibitory Concentration (MIC)
(§5) assays were conducted in 96-Well Clear polypropylene corner notch microplates (Corning, #11313595). For the […]

[2] = system: S. aureus AC29213; settings: for Minimum inhibitory concentration S. aureus AC29213: broth microdilution per CSLI guidelines, cation-adjusted Mueller Hinton Broth 2, 5 × 10^5 CFU/mL, 37 °C, 20 h, range 64–0.125 µg/mL, average of three repeat assays
Protocol: as §1, §2, §3, §4, §5

[3] = system: S. aureus CW113379; settings: for Minimum inhibitory concentration S. aureus CW113379: broth microdilution per CSLI guidelines, cation-adjusted Mueller Hinton Broth 2, 5 × 10^5 CFU/mL, 37 °C, 20 h, range 64–0.125 µg/mL, average of three repeat assays
Protocol: as §1, §2, §3, §4, §5

[4] = system: S. aureus CW114125; settings: for Minimum inhibitory concentration S. aureus CW114125: broth microdilution per CSLI guidelines, cation-adjusted Mueller Hinton Broth 2, 5 × 10^5 CFU/mL, 37 °C, 20 h, range 64–0.125 µg/mL, average of three repeat assays
Protocol: as §1, §2, §3, §4, §5

[5] = system: S. aureus CW115852; settings: for Minimum inhibitory concentration S. aureus CW115852: broth microdilution per CSLI guidelines, cation-adjusted Mueller Hinton Broth 2, 5 × 10^5 CFU/mL, 37 °C, 20 h, range 64–0.125 µg/mL, average of three repeat assays
Protocol: as §1, §2, §3, §4, §5

[6] = system: S. epidermidis CW131612; settings: for Minimum inhibitory concentration S. epidermidis CW131612: broth microdilution per CSLI guidelines, cation-adjusted Mueller Hinton Broth 2, 5 × 10^5 CFU/mL, 37 °C, 20 h, range 64–0.125 µg/mL, average of three repeat assays
Protocol: as §1, §2, §3, §4, §5

[7] = system: E. faecalis CW133346; settings: broth microdilution per CSLI guidelines, Brain Heart Infusion broth, 5 × 10^5 CFU/mL, 37 °C, 20 h, range 64–0.125 µg/mL, triplicate
Protocol: as §2, §3
(§6) Minimum Inhibitory Concentration (MIC) assays were conducted in 96-Well Clear polypropylene corner notch microplates (Corning, #11313595). For the assay media, cation adjusted Mueller Hinton Broth 2 (Sigma Aldrich, #90922) was used for the S. aureus, and S. epidermidis strains and Brain Heart Infusion broth (BD, #221812) was used for the E. faecalis and E. faecium […]
(§7) used, as well as melittin prepared by automated SPPS. Experimental bacterial strains used were procured from the American Type Culture collection (S. aureus 29213) and the Canadian Antimicrobial Resistance Alliance

[8] = system: E. faecium CW130826; settings: broth microdilution per CSLI guidelines, Brain Heart Infusion broth, 5 × 10^5 CFU/mL, 37 °C, 20 h, range 64–0.125 µg/mL, triplicate
Protocol: as §2, §3, §6, §7

[9] = system: E. faecium CW131126; settings: broth microdilution per CSLI guidelines, Brain Heart Infusion broth, 5 × 10^5 CFU/mL, 37 °C, 20 h, range 64–0.125 µg/mL, triplicate
Protocol: as §2, §3, §6, §7

[10] = system: S. epidermidis CW130500; settings: for Minimum inhibitory concentration S. epidermidis CW130500: broth microdilution per CSLI guidelines, cation-adjusted Mueller Hinton Broth 2, 5 × 10^5 CFU/mL, 37 °C, 20 h, range 64–0.125 µg/mL, triplicate
Protocol: as §2, §3, §6, §7

Compound: MSWLNFLKYIAKYGKKAVSAAWKYKGKVLEWLNVGPTLEWVWQKLKKIAGL-NH2 [L-AucA, L-aureocin A53 (Met^1-Leu^51)]
- Minimum inhibitory concentration E. faecalis CW133003 [1]: 4 µg/mL
- Minimum inhibitory concentration S. aureus AC29213 [2]: 4 µg/mL
- Minimum inhibitory concentration S. aureus CW113379 [3]: 4 µg/mL
- Minimum inhibitory concentration S. aureus CW114125 [4]: 4 µg/mL
- Minimum inhibitory concentration S. aureus CW115852 [5]: 16 µg/mL
- Minimum inhibitory concentration S. epidermidis CW131612 [6]: 4 µg/mL
- Minimum inhibitory concentration E. faecalis CW133346 [7]: 4 µg/mL
- Minimum inhibitory concentration E. faecium CW130826 [8]: 2 µg/mL
- Minimum inhibitory concentration E. faecium CW131126 [9]: 2 µg/mL
- Minimum inhibitory concentration S. epidermidis CW130500 [10]: 4 µg/mL

Compound: MS[Trp(1-Me)]LNFLKYIAKYGKKAVSAAWKYKGKVLEWLNVGPTLEWVWQKLKKIAGL-NH2 [L-^1MeW3, L-aureocin A53 ^1MeTrp3 (Met^1-Leu^51)]
- Minimum inhibitory concentration E. faecalis CW133003 [1]: 2 µg/mL
- Minimum inhibitory concentration S. aureus AC29213 [2]: 4 µg/mL
- Minimum inhibitory concentration S. aureus CW113379 [3]: 4 µg/mL
- Minimum inhibitory concentration S. aureus CW114125 [4]: 4 µg/mL
- Minimum inhibitory concentration S. aureus CW115852 [5]: 8 µg/mL
- Minimum inhibitory concentration S. epidermidis CW131612 [6]: 8 µg/mL
- Minimum inhibitory concentration E. faecalis CW133346 [7]: 1 µg/mL
- Minimum inhibitory concentration E. faecium CW130826 [8]: 2 µg/mL
- Minimum inhibitory concentration E. faecium CW131126 [9]: 2 µg/mL
- Minimum inhibitory concentration S. epidermidis CW130500 [10]: 4 µg/mL

Compound: CC[C@H](C)[C@H](NC(=O)CN)C(=O)NCC(=O)N[C@@H](C)C(=O)N[C@H](C(=O)N[C@@H](CC(C)C)C(=O)N[C@@H](CCCCN)C(=O)N[C@H](C(=O)N[C@@H](CC(C)C)C(=O)N[C@H](C(=O)N[C@H](C(=O)NCC(=O)N[C@@H](CC(C)C)C(=O)N1CCC[C@H]1C(=O)N[C@@H](C)C(=O)N[C@@H](CC(C)C)C(=O)N[C@H](C(=O)N[C@@H](CO)C(=O)N[C@@H](Cc1c[nH]c2ccccc12)C(=O)N[C@H](C(=O)N[C@@H](CCCCN)C(=O)N[C@@H](CCCNC(=N)N)C(=O)N[C@@H](CCCCN)C(=O)N[C@@H](CCCNC(=N)N)C(=O)N[C@@H](CCC(N)=O)C(=O)N[C@@H](CCC(N)=O)C(N)=O)[C@@H](C)CC)[C@@H](C)CC)[C@@H](C)O)[C@@H](C)O)C(C)C)C(C)C [Melittin, melittin, reference compound]
- Minimum inhibitory concentration E. faecalis CW133003 [1]: 16 µg/mL (≈ 5.62 µM)
- Minimum inhibitory concentration S. aureus AC29213 [2]: 8 µg/mL (≈ 2.81 µM)
- Minimum inhibitory concentration S. aureus CW113379 [3]: 4 µg/mL (≈ 1.41 µM)
- Minimum inhibitory concentration S. aureus CW114125 [4]: 8 µg/mL (≈ 2.81 µM)
- Minimum inhibitory concentration S. aureus CW115852 [5]: 4 µg/mL (≈ 1.41 µM)
- Minimum inhibitory concentration S. epidermidis CW131612 [6]: 4 µg/mL (≈ 1.41 µM)
- Minimum inhibitory concentration E. faecalis CW133346 [7]: 16 µg/mL (≈ 5.62 µM)
- Minimum inhibitory concentration E. faecium CW130826 [8]: 8 µg/mL (≈ 2.81 µM)
- Minimum inhibitory concentration E. faecium CW131126 [9]: 8 µg/mL (≈ 2.81 µM)
- Minimum inhibitory concentration S. epidermidis CW130500 [10]: 8 µg/mL (≈ 2.81 µM)

Compound: [dM][dS][dW][dL][dN][dF][dL][dK][dY][dI][dA][dK][dY]G[dK][dK][dA][dV][dS][dA][dA][dW][dK][dY][dK]G[dK][dV][dL][dE][dW][dL][dN][dV]G[dP][dT][dL][dE][dW][dV][dW][dQ][dK][dL][dK][dK][dI][dA]G[dL]-NH2 [D-AucA, D-aureocin A53 (Met^1-Leu^51)]
- Minimum inhibitory concentration E. faecalis CW133003 [1]: 4 µg/mL
- Minimum inhibitory concentration S. aureus AC29213 [2]: 4 µg/mL
- Minimum inhibitory concentration S. aureus CW113379 [3]: 4 µg/mL
- Minimum inhibitory concentration S. aureus CW114125 [4]: 4 µg/mL
- Minimum inhibitory concentration S. aureus CW115852 [5]: 2 µg/mL
- Minimum inhibitory concentration S. epidermidis CW131612 [6]: 4 µg/mL
- Minimum inhibitory concentration E. faecalis CW133346 [7]: 4 µg/mL
- Minimum inhibitory concentration E. faecium CW130826 [8]: 2 µg/mL
- Minimum inhibitory concentration E. faecium CW131126 [9]: 4 µg/mL
- Minimum inhibitory concentration S. epidermidis CW130500 [10]: 4 µg/mL

Compound: MAGFLKVVQLLAKYGSKAVQWALANKGKILDWLNAGQAIDWVVSKIKQILGIK-NH2 [L-W23L, L-lacticin Q W23L (Met^1-Lys^53)]
- Minimum inhibitory concentration E. faecalis CW133003 [1]: 4 µg/mL
- Minimum inhibitory concentration S. aureus AC29213 [2]: 32 µg/mL
- Minimum inhibitory concentration S. aureus CW113379 [3]: 64 µg/mL
- Minimum inhibitory concentration S. aureus CW114125 [4]: > 64 µg/mL
- Minimum inhibitory concentration S. aureus CW115852 [5]: 64 µg/mL
- Minimum inhibitory concentration S. epidermidis CW131612 [6]: 32 µg/mL
- Minimum inhibitory concentration E. faecalis CW133346 [7]: 8 µg/mL
- Minimum inhibitory concentration E. faecium CW131126 [9]: 4 µg/mL

Compound: [dM][dA]G[dF][dL][dK][dV][dV][dQ][dL][dL][dA][dK][dY]G[dS][dK][dA][dV][dQ][dW][dA][dW][dA][dN][dK]G[dK][dI][dL][dD][dW][dL][dN][dA]G[dQ][dA][dI][dD][dW][dV][dV][dS][dK][dI][dK][dQ][dI][dL]G[dI][dK]-NH2 [D-LnqQ, D-lacticin Q (Met^1-Lys^53)]
- Minimum inhibitory concentration E. faecalis CW133003 [1]: 2 µg/mL
- Minimum inhibitory concentration S. aureus AC29213 [2]: 4 µg/mL
- Minimum inhibitory concentration S. aureus CW113379 [3]: 4 µg/mL
- Minimum inhibitory concentration S. aureus CW114125 [4]: 8 µg/mL
- Minimum inhibitory concentration S. aureus CW115852 [5]: 4 µg/mL
- Minimum inhibitory concentration S. epidermidis CW131612 [6]: 4 µg/mL
- Minimum inhibitory concentration E. faecalis CW133346 [7]: 2 µg/mL
- Minimum inhibitory concentration E. faecium CW130826 [8]: 2 µg/mL
- Minimum inhibitory concentration E. faecium CW131126 [9]: 2 µg/mL
- Minimum inhibitory concentration S. epidermidis CW130500 [10]: 4 µg/mL

Compound: CC1(C)S[C@@H]2[C@H](NC(=O)[C@H](N)c3ccccc3)C(=O)N2[C@H]1C(=O)O [Ampicillin, ampicillin, reference compound]
- MIC ([2]; Staphylococcus aureus, AC29213, 20 h, read-out: Minimum inhibitory concentration S. aureus AC29213): 2 µg/mL (≈ 5.72 µM)
- MIC ([3]; Staphylococcus aureus, CW113379, 20 h, read-out: Minimum inhibitory concentration S. aureus CW113379): 32 µg/mL (≈ 91.6 µM)
- MIC ([4]; Staphylococcus aureus, CW114125, 20 h, read-out: Minimum inhibitory concentration S. aureus CW114125): 16 µg/mL (≈ 45.8 µM)
- MIC ([5]; Staphylococcus aureus, CW115852, 20 h, read-out: Minimum inhibitory concentration S. aureus CW115852): 4 µg/mL (≈ 11.4 µM)
- MIC ([6]; Staphylococcus epidermidis, CW131612, 20 h, read-out: Minimum inhibitory concentration S. epidermidis CW131612): > 64 µg/mL
- MIC ([10]; Staphylococcus epidermidis, CW130500, 20 h, read-out: Minimum inhibitory concentration S. epidermidis CW130500): 8 µg/mL (≈ 22.9 µM)

Compound: MAGFLKVVQLLAKYGSKAVQWAWANKGKILDWLNAGQAIDLVVSKIKQILGIK-NH2 (C-terminus assumed) [L-W41L, L-lacticin Q W41L (Met^1-Lys^53)]
- Minimum inhibitory concentration E. faecalis CW133003 [1]: 64 µg/mL
- Minimum inhibitory concentration S. aureus AC29213 [2]: > 64 µg/mL
- Minimum inhibitory concentration S. aureus CW113379 [3]: > 64 µg/mL
- Minimum inhibitory concentration S. aureus CW114125 [4]: > 64 µg/mL
- Minimum inhibitory concentration S. aureus CW115852 [5]: > 64 µg/mL
- Minimum inhibitory concentration S. epidermidis CW131612 [6]: > 64 µg/mL
- Minimum inhibitory concentration E. faecium CW131126 [9]: 8 µg/mL
